The values below are quoted from earlier work in patent US20240033215A1 (AMOS PHARM, priority 2022, published 2024).

As usually defined, the solubility is how much of the substance goes into solution per volume.

Converted amounts (≈) assume the structure as drawn. Where two headings read alike, the source gives them in different places.

For the molecule `CC(C)Cc1ccc([C@H](C)C(=O)O)cc1` [Dexibuprofen], the solubility (at acidic pH) is 0.078 mg/mL (≈ 0.378 mM) and the solubility (at alkaline pH) is 291 mg/mL (≈ 1410 mM).
